Results published in US11013745B2, “Triazolopyrimidine, triazolopyridine compounds, and the composition thereof for treating PRC2-mediated diseases” (SHANGHAI INSTITUTE OF MATERIA MEDICA, CHINESE ACADEMY OF …, priority 2017, dated 2021).
pIC50: −log10 of the molar value. Each block holds one molecule with its values, some of them ahead of it.

What was measured:
[1] = system: Pfeiffer cells; experiment: Growth inhibition of Pfeiffer cells in a long term (14 days), CellTiter-Glo; type: cell-based, Human; conditions: Homo sapiens, 336 h, 14 days, read-out: Pfeiffer (14 days) IC50
Protocol: In a CO2 cell incubator (37° C., 5% CO2), Human diffuse large B-cell lymphoma (DLBCL) cell line, pfeiffer (obtained from ATCC, CRL-2632) were incubated with RPMI 1640 medium (Gibco, purchased from Life Technologies, 22400-089) containing 10% fetal bovine serum (Gibco, purchased from Life Technologies, 10099-141) and 1% antibiotics (penicillin and streptomycin, purchased from Life Technologies, 10378016). […] After seeding the cells, they were placed in a CO2 incubator and allowed to stand for 1 hour. In a 24-well plate containing cells, 2 μL of three-fold gradient of the compounds at 9 different concentrations or DMSO were added to each well, such that the final concentration of the compounds was 0.003-20 μM or 0.3-2000 nM, and the final concentration of DMSO was 0.2%. At day 4, day 7, and day 11 of compound treatment, the fresh medium and compounds were changed, and the cell density of the DMSO control well was diluted to 2*10E5 cells/mL. The cell dilution ratio for other compound wells was the same as that of the DMSO control well. Cell viability was determined by using CellTiter-Glo reagent (purchased from Promega Inc., G7572): cells treated with the compounds for 14 days were transferred to a white 384-well plate (OptiPlate-384, purchased from PerkinElmer, 6007299) at 40 μL/well, an equal volume of CellTiter-Glo reagent was further added. After incubating at room temperature for 10 min, the cold luminescence signal was detected with a multifunctional microplate reader EnVision (PerkinElmer) at a wavelength of 400 to 700 nm. Data were analyzed using GraphPad Prism 5.0 software, and IC50 values were obtained.

[2] = molecular target: PRC2 enzyme (Homo sapiens (Human), UniProt O75530); experiment: PRC2 enzyme activity, TR-FRET method; type: biochemical
Protocol: The TR-FRET method was used to measure the PRC2 enzyme activity. First, the enzyme was mixed with compounds at different concentrations and incubated for 30 min at room temperature. The biotin-labeled histone H3 peptide substrate and the cofactor S-adenosylmethionine (SAM) were added to initiate the enzymatic reaction. After reaction was performed at room temperature for 4 hour, Acceptor and Donor were added and incubated for half an hour. The multifunctional microplate reader EnVision (Perkin Elmer Inc.) was used to detect the fluorescence signal. Data were analyzed using GraphPad Prism 5.0 software, and IC50 values were obtained.

[3] = system: Pfeiffer cells; experiment: Pfeiffer cell growth inhibition in a long term (11 days), CellTiter-Glo; type: cell-based, Human; conditions: Homo sapiens, 264 h, 11 days, read-out: Experiment on Pfeiffer cell growth inhibition in a long term (11 days IC50)
Protocol: Pfeiffer cells in exponential growth phase were seeded in a 24-well plate with a cell density of 1*10E5 cells/mL. Cells were treated on the same day with the compounds at different concentrations. At day 4 and day 7 of compound treatment, fresh media and compounds were changed. After treated with the compounds for 11 days, cell viability was measured using CellTiter-Glo reagent (Promega Corporation). The data was analyzed using GraphPad Prism 5.0 software and GI50 values were obtained.

[4] = Liver microsomal stability (human); type: in vitro ADME; conditions: for Clearance rate in vivo Clint In Vivo Extpl / Intrinsic clearance rate in vivo Clint In Vitro / Liver clearance rate Clint Hep In Vivo Extpl: human liver microsomes; for half-life / bioavailability: human, liver microsomes, pH 7.4, human liver microsomes; for half-life: read-out: Half life T-half; for bioavailability: read-out: Metabolic bioavailability MF %
Protocol: (§1) 1. JANUS and temperature control device was turned on. After being initialized, the pipes were flushed until there was no air bubble in the pipes.
(§2) 2. Preparation of buffers used for the experiment
(§3) Preparation of Tris pH 7.4 buffer (0.1 M): 12.12 g of Tris was dissolved in 1000 mL of H2O, the resulting solution was adjusted to pH 7.4 with 2N HCl, aliquoted at 50 mL per tube, and stored at −20° C.
(§4) Preparation of H2O/0.1% BSA buffer: 200 μL of 25% BSA was added to 50 mL of H2O.
(§5) Preparation of VIVID stock solution: 1 mg of VIVID was dissolved in 1 mL of acetonitrile, aliquoted at 50 μL per tube, and stored at −20° C.
(§6) Preparation of MgCl2 solution (100 mM): 1.016 g of MgCl2 was dissolved in 50 mL Tris pH 7.4 buffer, and aliquoted at 1 mL per tube, and stored at −20° C.
(§7) Preparation of NADPH solution (10 mM): 355 mg of NADPH was dissolved in 42.6 mL of Tris pH 7.4 buffer, aliquoted at 1.8 mL per tube, and stored at −20° C.
(§8) Preparation of Blank control: 7.937 mL of Tris, 163 μL of RLM, 450 μL of MgCl2 solution, 450 μL of NADPH solution and 9 mL of methanol were mixed uniformly, aliquoted at 1 mL per tube, and stored at −20° C.
(§9) 3. Preparation of Compound Working Solution
(§10) Dilution step 1:10 μL of compound stock solution was added to 90 μL of DMSO=1 mM stock solution.
(§11) Dilution step 2: 2 μL of 1 mM stock solution was added to 1 mL of H2O/0.1%6 BSA buffer=[…] working solution.
(§12) Dilution step 3: 245 μL of the working solution was added to a 96-well compound plate and added with 5 μL of VIVID stock solution.
(§13) The 96-well compound plate was shaken on a shaker for 5 min.
(§14) 4. The STM in the JANUS in the computer was open to run the EXCEL file, and the JANUS program was operated and run by following the instructions in the EXCEL file.
(§15) 5. After the JANUS program was finished, acetonitrile/water 50:50 (V/V) was added to column 20 of the 384-well black plate, and blank control was added to column 21 of the 384-well black plate.
(§16) 6. the plate (420 nm-465 nm) was read on a microplate reader to determine the VIVID fluorescence intensity.
(§17) 7. After the plate was sealed, shaken and centrifuged, the sample plate was subjected to the LC/MS instrument for sample analysis.
(§18) A profile of the logarithmic value of the remaining rate of the drug in the incubation system versus the incubation time was plotted, and the slope k was obtained by linear regression. The intrinsic clearance rate in vivo (Clint, mL/min/g) value, the clearance rate in vivo (Cl, mL)/min), liver clearance (Clhep, mL/min) and metabolic bioavailability (% MF) were predicted according to the following equations: […]

[5] = Liver microsomal stability (rat); type: in vitro ADME; conditions: for Clearance rate in vivo Clint In Vivo Extpl / Intrinsic clearance rate in vivo Clint In Vitro / Liver clearance rate Clint Hep In Vivo Extpl / Metabolic bioavailability MF %: rat liver microsomes; for half-life: rat, liver microsomes, pH 7.4, rat liver microsomes, read-out: Half life T-half
Protocol: as §1, §2, §3, §4, §5, §6, §7, §8, §9, §10, §11, §12, §13, §14, §15, §16, §17, §18

[6] = Liver microsomal stability (mouse); type: in vitro ADME; conditions: for Clearance rate in vivo Clint In Vivo Extpl / Intrinsic clearance rate in vivo Clint In Vitro / Liver clearance rate Clint Hep In Vivo Extpl / Metabolic bioavailability MF %: mouse liver microsomes; for half-life: mouse, liver microsomes, pH 7.4, mouse liver microsomes, read-out: Half life T-half
[7] = system: Karpas-422 cells; experiment: Growth inhibition of Karpas-422 cells in a long term (11 days), CellTiter-Glo; type: cell-based, Human; conditions: Homo sapiens, 264 h; Karpas-422, 11 days; read-out: Karpas-422 (11 days) IC50

Chain of PRC2 enzyme (O75530 whole entry): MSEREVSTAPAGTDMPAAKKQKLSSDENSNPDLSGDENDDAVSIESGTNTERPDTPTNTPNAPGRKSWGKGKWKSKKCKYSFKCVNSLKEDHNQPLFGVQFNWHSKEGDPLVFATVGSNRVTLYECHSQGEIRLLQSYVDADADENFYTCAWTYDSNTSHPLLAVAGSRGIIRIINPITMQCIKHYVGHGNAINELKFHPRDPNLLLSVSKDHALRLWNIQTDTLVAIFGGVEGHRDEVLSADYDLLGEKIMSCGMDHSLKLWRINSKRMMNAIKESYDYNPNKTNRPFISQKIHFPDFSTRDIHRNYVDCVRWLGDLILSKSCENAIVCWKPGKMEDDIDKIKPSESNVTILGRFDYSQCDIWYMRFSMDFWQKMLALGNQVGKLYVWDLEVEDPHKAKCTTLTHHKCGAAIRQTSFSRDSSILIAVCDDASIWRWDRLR
Chain of PRC2 enzyme (Q15910 whole entry partner): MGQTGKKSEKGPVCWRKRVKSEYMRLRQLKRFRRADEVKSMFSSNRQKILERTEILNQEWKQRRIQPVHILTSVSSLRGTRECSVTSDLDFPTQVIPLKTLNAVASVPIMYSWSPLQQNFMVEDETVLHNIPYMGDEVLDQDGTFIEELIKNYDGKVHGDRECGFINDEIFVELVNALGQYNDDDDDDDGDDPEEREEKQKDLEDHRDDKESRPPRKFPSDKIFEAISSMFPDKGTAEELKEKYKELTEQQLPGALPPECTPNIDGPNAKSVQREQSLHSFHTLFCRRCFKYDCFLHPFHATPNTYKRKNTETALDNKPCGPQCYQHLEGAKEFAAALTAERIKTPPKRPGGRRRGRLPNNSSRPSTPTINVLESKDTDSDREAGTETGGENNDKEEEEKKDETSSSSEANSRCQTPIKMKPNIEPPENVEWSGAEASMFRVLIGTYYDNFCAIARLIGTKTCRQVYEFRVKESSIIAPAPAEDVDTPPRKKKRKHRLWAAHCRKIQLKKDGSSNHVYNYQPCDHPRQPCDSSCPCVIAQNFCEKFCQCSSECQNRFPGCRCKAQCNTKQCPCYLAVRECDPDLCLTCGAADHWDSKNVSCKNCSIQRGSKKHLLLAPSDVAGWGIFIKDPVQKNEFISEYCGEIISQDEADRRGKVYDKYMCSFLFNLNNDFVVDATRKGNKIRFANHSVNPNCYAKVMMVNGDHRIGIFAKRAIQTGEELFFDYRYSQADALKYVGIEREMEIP
Chain of PRC2 enzyme (Q15022 whole entry partner): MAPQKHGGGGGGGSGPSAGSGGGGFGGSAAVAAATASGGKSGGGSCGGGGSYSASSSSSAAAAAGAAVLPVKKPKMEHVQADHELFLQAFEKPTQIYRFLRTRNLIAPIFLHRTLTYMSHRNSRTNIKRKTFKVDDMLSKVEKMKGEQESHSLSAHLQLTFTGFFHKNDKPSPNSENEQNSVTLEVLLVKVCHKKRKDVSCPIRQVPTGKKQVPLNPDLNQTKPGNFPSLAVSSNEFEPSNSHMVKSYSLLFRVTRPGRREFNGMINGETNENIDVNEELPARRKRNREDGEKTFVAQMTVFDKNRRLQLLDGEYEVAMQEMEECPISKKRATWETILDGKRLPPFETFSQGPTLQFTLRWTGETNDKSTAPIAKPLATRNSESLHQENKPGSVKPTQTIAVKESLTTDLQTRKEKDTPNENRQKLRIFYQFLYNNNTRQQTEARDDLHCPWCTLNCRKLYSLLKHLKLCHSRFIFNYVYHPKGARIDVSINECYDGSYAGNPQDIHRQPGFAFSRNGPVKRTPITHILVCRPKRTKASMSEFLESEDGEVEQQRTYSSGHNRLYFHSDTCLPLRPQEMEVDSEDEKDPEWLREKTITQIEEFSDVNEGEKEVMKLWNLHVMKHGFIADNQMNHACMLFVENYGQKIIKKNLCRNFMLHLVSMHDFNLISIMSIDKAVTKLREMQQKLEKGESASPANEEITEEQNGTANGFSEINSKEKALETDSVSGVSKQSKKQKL

Structure (SMILES): CC1(C)CC(c2cnc(NCc3c(F)ccc4c3CCO4)n3cnnc23)=CCO1 [SL-ZYE-119]
pIC50 [1]: 8.40 | pIC50 [2]: 7.63 | pIC50 [3]: 8.09

Structure (SMILES): O=S1(=O)CC=C(c2cnc(NCc3c(F)ccc4c3CCO4)n3cnnc23)CC1 [SL-ZYE-09]
pIC50 [1]: 8.49 | pIC50 [2]: 8.35

Structure (SMILES): Fc1ccc2c(c1CNc1ncc(C3=CCOc4ccccc43)c3nncn13)CCO2 [SL-ZYE-28]
pIC50 [1]: 8.00 | pIC50 [2]: 7.65

Structure (SMILES): Cc1cc(C(=O)N2CC=C(c3cnc(NCc4c(F)ccc5c4CCO5)n4cnnc34)CC2)n(C)n1 [E-Y42]
pIC50 [7]: 8.00 | pIC50 [1]: 8.82 | pIC50 [2]: 8.32 | pIC50 [3]: 8.44

Structure (SMILES): Cc1ccc(S(=O)(=O)N2CC=C(c3cnc(NCc4ccco4)n4cnnc34)CC2)cc1 [E-Y23]
pIC50 [2]: 6.46 | pIC50 [3]: 6.97

Structure (SMILES): O=C(OCc1ccccc1)N1CC=C(c2cnc(NCc3c(F)ccc4c3CCO4)n3cnnc23)CC1 [E-Y44]
pIC50 [2]: 7.07 | pIC50 [3]: 8.64

Structure (SMILES): O=C(CN1CCOCC1)N1CC=C(c2cnc(NCc3ccco3)n3cnnc23)CC1 [E-Y36]
pIC50 [2]: 6.27 | pIC50 [3]: 6.54

Structure (SMILES): CC1C=C(c2cnc(NCc3c(F)ccc4c3CCO4)n3cnnc23)CC(C)O1 (stereo not shown) [SL-ZYE-24]
pIC50 [1]: 8.22 | pIC50 [2]: 8.08

Structure (SMILES): CC(=O)N1CCC(c2cnc(NCc3c(F)ccc4c3CCO4)n3cnnc23)CC1 [E-Y50]
Clearance rate in vivo Clint In Vivo Extpl [4]: 174 mL/min | Intrinsic clearance rate in vivo Clint In Vitro [4]: 2.28 mL/min/gprot | Liver clearance rate Clint Hep In Vivo Extpl [4]: 156 mL/min | half-life [4]: 15.4 h | bioavailability [4]: 89.6% | Clearance rate in vivo Clint In Vivo Extpl [5]: 10.9 mL/min | Intrinsic clearance rate in vivo Clint In Vitro [5]: 24.2 mL/min/gprot | Liver clearance rate Clint Hep In Vivo Extpl [5]: 7.05 mL/min | Metabolic bioavailability MF % [5]: 64.8% | half-life [5]: 1.45 h | Clearance rate in vivo Clint In Vivo Extpl [6]: 0.921 mL/min | Intrinsic clearance rate in vivo Clint In Vitro [6]: 13.6 mL/min/gprot | Liver clearance rate Clint Hep In Vivo Extpl [6]: 0.705 mL/min | Metabolic bioavailability MF % [6]: 76.5% | half-life [6]: 2.57 h | pIC50 [2]: 8.28 | pIC50 [3]: 8.42

Structure (SMILES): CC(C)(C)NC(=O)N1CCC(c2cnc(NCc3c(F)ccc4c3CCO4)n3cnnc23)CC1 [E-Y49]
pIC50 [2]: 8.18 | pIC50 [3]: 8.00

Next, values leading:

Clearance rate in vivo Clint In Vivo Extpl [4]: 1464 mL/min | Intrinsic clearance rate in vivo Clint In Vitro [4]: 19.1 mL/min/gprot | Liver clearance rate Clint Hep In Vivo Extpl [4]: 741 mL/min | half-life [4]: 1.83 h | bioavailability [4]: 50.6% | Clearance rate in vivo Clint In Vivo Extpl [5]: 44.8 mL/min | Intrinsic clearance rate in vivo Clint In Vitro [5]: 99.6 mL/min/gprot | Liver clearance rate Clint Hep In Vivo Extpl [5]: 13.8 mL/min | Metabolic bioavailability MF % [5]: 30.9% | half-life [5]: 0.352 h | Clearance rate in vivo Clint In Vivo Extpl [6]: 10.9 mL/min | Intrinsic clearance rate in vivo Clint In Vitro [6]: 161 mL/min/gprot | Liver clearance rate Clint Hep In Vivo Extpl [6]: 2.35 mL/min | Metabolic bioavailability MF % [6]: 21.6% | half-life [6]: 0.217 h | pIC50 [2]: 8.07 | pIC50 [3]: 8.48
Structure (SMILES): O=C(C1CCOCC1)N1CC=C(c2cnc(NCc3c(F)ccc4c3CCO4)n3cnnc23)CC1 [E-Y43]

pIC50 [2]: 7.68 | pIC50 [3]: 8.57
Structure (SMILES): CC(C)(C)NC(=O)N1CC=C(c2cnc(NCc3c(F)ccc4c3CCO4)n3cnnc23)CC1 [E-Y18]

pIC50 [2]: 7.75 | pIC50 [3]: 8.32
Structure (SMILES): O=C(c1ccccc1)N1CC=C(c2cnc(NCc3c(F)ccc4c3CCO4)n3cnnc23)CC1 [E-Y16]

pIC50 [2]: 8.47 | pIC50 [3]: 8.74
Structure (SMILES): C=CC(=O)N1CC=C(c2cnc(NCc3c(F)ccc4c3CCO4)n3cnnc23)CC1 [E-Y45]

pIC50 [2]: 7.39 | pIC50 [3]: 7.57 to 8.05
Structure (SMILES): CCC(=O)N1CC=C(c2cnc(NCc3c(F)ccc4c3CCO4)n3cnnc23)CC1 [SL-ZYE-161]

Clearance rate in vivo Clint In Vivo Extpl [4]: 2522 mL/min | Intrinsic clearance rate in vivo Clint In Vitro [4]: 33.0 mL/min/gprot | Liver clearance rate Clint Hep In Vivo Extpl [4]: 941 mL/min | half-life [4]: 1.06 h | bioavailability [4]: 37.3% | Clearance rate in vivo Clint In Vivo Extpl [5]: 59.6 mL/min | Intrinsic clearance rate in vivo Clint In Vitro [5]: 133 mL/min/gprot | Liver clearance rate Clint Hep In Vivo Extpl [5]: 15.0 mL/min | Metabolic bioavailability MF % [5]: 25.1% | half-life [5]: 0.265 h | Clearance rate in vivo Clint In Vivo Extpl [6]: 23.2 mL/min | Intrinsic clearance rate in vivo Clint In Vitro [6]: 344 mL/min/gprot | Liver clearance rate Clint Hep In Vivo Extpl [6]: 2.66 mL/min | Metabolic bioavailability MF % [6]: 11.4% | half-life [6]: 0.102 h | pIC50 [2]: 7.79 | pIC50 [3]: 8.27
Structure (SMILES): O=C(CN1CCOCC1)N1CC=C(c2cnc(NCc3c(F)ccc4c3CCO4)n3cnnc23)CC1 [E-Y40]

pIC50 [2]: 8.33 | pIC50 [3]: 8.52 to 9.00
Structure (SMILES): CCOC(=O)N1CC=C(c2cnc(NCc3c(F)ccc4c3CCO4)n3cnnc23)CC1 [SL-ZYE-148]
